Measurements as given in patent publication US10472315B2, “Inhibitors of methionine aminopeptidases and methods of treating disorders” (THE JOHNS HOPKINS UNIVERSITY, priority 2009, dated 2019).

System: M. tuberculosis CDC1551 wild-type, control and MtMetAP1a/MtMetAP1c knock-in strains
Type: cell-based

## O=C1C(Cl)=C(Cl)C(=O)c2ccccc21 [Compound 4, 2,3-dichloro-1,4-naphthoquinone]
  growth of MtMetAP1a and MtMetAP1c knock-in strains: gained resistance
  growth of wild-type and control M. tuberculosis strains: inhibited
